Numbers after ± are expanded uncertainties.
Key:
[1] = xn = mol fraction of the nth substance listed; settings: for electrical conductivity / viscosity / mass density: 101 kPa, Liquid; for electrical conductivity: Alternating current cell with electrodes; for viscosity: Concentric cylinders viscometry; for mass density: Vibrating tube method; for surface tension liquid-gas: Ring tensiometer
[2] = refractive index (Na D-line) (dimensionless); xn = mol fraction of the nth substance listed; settings: 101 kPa, Liquid, Standard Abbe refractometry

With `CCCC[N+](CCCC)(CCCC)CCCC.[Cl-]` [tetrabutylammonium chloride] + OCCOCCOCCO the electrical conductivity ([1]; 293.15 K, x1 = 0.5) was 0.0139 ± 0.00056 S/m, the electrical conductivity ([1]; 293.15 K, x1 = 0.667) was 0.00681 ± 0.00027 S/m and the electrical conductivity ([1]; 293.15 K, x1 = 0.75) was 0.00221 ± 8.8e-05 S/m. For the same compound, the electrical conductivity ([1]; 293.15 K, x1 = 0.8) was 0.00178 ± 7.1e-05 S/m, the viscosity ([1]; 293.15 K, x1 = 0.5) was 870 ± 93 mPa·s and the mass density ([1]; 293.15 K, x1 = 0.5) was 1027 ± 1 kg/m3. For the same compound, the mass density ([1]; 293.15 K, x1 = 0.667) was 1007 ± 1 kg/m3, the mass density ([1]; 293.15 K, x1 = 0.75) was 996 ± 1 kg/m3 and the mass density ([1]; 293.15 K, x1 = 0.8) was 990 ± 10 kg/m3. The surface tension liquid-gas ([1]; 303.15 K, x1 = 0.5) was 40.6 ± 1.2 mN/m, the surface tension liquid-gas ([1]; 303.15 K, x1 = 0.667) was 40.1 ± 1.2 mN/m and the surface tension liquid-gas ([1]; 303.15 K, x1 = 0.75) was 39.3 ± 1.2 mN/m. It also gave a surface tension liquid-gas ([1]; 303.15 K, x1 = 0.8) of 40 ± 1 mN/m, an electrical conductivity ([1]; 303.15 K, x1 = 0.5) of 0.0228 ± 0.0009 S/m and an electrical conductivity ([1]; 303.15 K, x1 = 0.667) of 0.0149 ± 0.0006 S/m. The electrical conductivity ([1]; 303.15 K, x1 = 0.75) was 0.005 ± 0.0002 S/m, the electrical conductivity ([1]; 303.15 K, x1 = 0.8) was 0.0047 ± 0.0002 S/m and the viscosity ([1]; 303.15 K, x1 = 0.5) was 543.8 ± 57 mPa·s. The viscosity ([1]; 303.15 K, x1 = 0.667) was 1399 ± 150 mPa·s, the viscosity ([1]; 303.15 K, x1 = 0.8) was 3265.3 ± 370 mPa·s and the mass density ([1]; 303.15 K, x1 = 0.5) was 1021 ± 1 kg/m3. It also gave a mass density ([1]; 303.15 K, x1 = 0.667) of 1001 ± 1 kg/m3, a mass density ([1]; 303.15 K, x1 = 0.75) of 990 ± 10 kg/m3 and a mass density ([1]; 303.15 K, x1 = 0.8) of 985 ± 1 kg/m3. The surface tension liquid-gas ([1]; 313.15 K, x1 = 0.5) was 39.5 ± 1.2 mN/m, the surface tension liquid-gas ([1]; 313.15 K, x1 = 0.667) was 38.6 ± 1.2 mN/m and the surface tension liquid-gas ([1]; 313.15 K, x1 = 0.75) was 38.3 ± 1.2 mN/m. For the same compound, the surface tension liquid-gas ([1]; 313.15 K, x1 = 0.8) was 38.4 ± 1.2 mN/m, the electrical conductivity ([1]; 313.15 K, x1 = 0.5) was 0.0376 ± 0.0015 S/m and the electrical conductivity ([1]; 313.15 K, x1 = 0.667) was 0.0284 ± 0.0011 S/m. For the same compound, the electrical conductivity ([1]; 313.15 K, x1 = 0.75) was 0.0097 ± 0.0004 S/m, the electrical conductivity ([1]; 313.15 K, x1 = 0.8) was 0.0108 ± 0.0004 S/m and the viscosity ([1]; 313.15 K, x1 = 0.5) was 289.4 ± 30 mPa·s. For the same compound, the viscosity ([1]; 313.15 K, x1 = 0.667) was 952.2 ± 100 mPa·s, the viscosity ([1]; 313.15 K, x1 = 0.75) was 7031.7 ± 830 mPa·s and the viscosity ([1]; 313.15 K, x1 = 0.8) was 1900.4 ± 210 mPa·s. The mass density ([1]; 313.15 K, x1 = 0.5) was 1015 ± 1 kg/m3, the mass density ([1]; 313.15 K, x1 = 0.667) was 995 ± 1 kg/m3 and the mass density ([1]; 313.15 K, x1 = 0.75) was 984 ± 1 kg/m3. It also gave a mass density ([1]; 313.15 K, x1 = 0.8) of 980 ± 10 kg/m3, a surface tension liquid-gas ([1]; 323.15 K, x1 = 0.5) of 38.8 ± 1.2 mN/m and a surface tension liquid-gas ([1]; 323.15 K, x1 = 0.667) of 38 ± 1 mN/m. It also gave a surface tension liquid-gas ([1]; 323.15 K, x1 = 0.75) of 37.2 ± 1.2 mN/m, a surface tension liquid-gas ([1]; 323.15 K, x1 = 0.8) of 37.3 ± 1.2 mN/m and an electrical conductivity ([1]; 323.15 K, x1 = 0.5) of 0.055 ± 0.0022 S/m. It also gave an electrical conductivity ([1]; 323.15 K, x1 = 0.667) of 0.0458 ± 0.0018 S/m, an electrical conductivity ([1]; 323.15 K, x1 = 0.75) of 0.0154 ± 0.0006 S/m and an electrical conductivity ([1]; 323.15 K, x1 = 0.8) of 0.0214 ± 0.0009 S/m. The viscosity ([1]; 323.15 K, x1 = 0.5) was 166.4 ± 17 mPa·s, the viscosity ([1]; 323.15 K, x1 = 0.667) was 493 ± 52 mPa·s and the viscosity ([1]; 323.15 K, x1 = 0.75) was 909.1 ± 120 mPa·s. The viscosity ([1]; 323.15 K, x1 = 0.8) was 862.9 ± 93 mPa·s, the mass density ([1]; 323.15 K, x1 = 0.5) was 1009 ± 1 kg/m3 and the mass density ([1]; 323.15 K, x1 = 0.667) was 989 ± 1 kg/m3. It also gave a mass density ([1]; 323.15 K, x1 = 0.75) of 978 ± 1 kg/m3, a mass density ([1]; 323.15 K, x1 = 0.8) of 973 ± 1 kg/m3 and a surface tension liquid-gas ([1]; 333.15 K, x1 = 0.5) of 38.2 ± 1.2 mN/m. It also gave a surface tension liquid-gas ([1]; 333.15 K, x1 = 0.667) of 37.4 ± 1.2 mN/m, a surface tension liquid-gas ([1]; 333.15 K, x1 = 0.75) of 36.6 ± 1.2 mN/m and a surface tension liquid-gas ([1]; 333.15 K, x1 = 0.8) of 36.5 ± 1.2 mN/m. It also gave an electrical conductivity ([1]; 333.15 K, x1 = 0.5) of 0.0805 ± 0.0032 S/m, an electrical conductivity ([1]; 333.15 K, x1 = 0.667) of 0.0676 ± 0.0027 S/m and an electrical conductivity ([1]; 333.15 K, x1 = 0.75) of 0.0217 ± 0.0009 S/m. The electrical conductivity ([1]; 333.15 K, x1 = 0.8) was 0.0252 ± 0.001 S/m, the viscosity ([1]; 333.15 K, x1 = 0.5) was 100.8 ± 10 mPa·s and the viscosity ([1]; 333.15 K, x1 = 0.667) was 264.1 ± 27 mPa·s. For the same compound, the viscosity ([1]; 333.15 K, x1 = 0.75) was 452.1 ± 48 mPa·s, the viscosity ([1]; 333.15 K, x1 = 0.8) was 411.2 ± 43 mPa·s and the mass density ([1]; 333.15 K, x1 = 0.5) was 1003 ± 1 kg/m3. For the same compound, the mass density ([1]; 333.15 K, x1 = 0.667) was 983 ± 1 kg/m3, the mass density ([1]; 333.15 K, x1 = 0.75) was 972 ± 1 kg/m3 and the mass density ([1]; 333.15 K, x1 = 0.8) was 968 ± 1 kg/m3. It also gave a surface tension liquid-gas ([1]; 343.15 K, x1 = 0.5) of 37.6 ± 1.2 mN/m, a surface tension liquid-gas ([1]; 343.15 K, x1 = 0.667) of 36.4 ± 1.2 mN/m and a surface tension liquid-gas ([1]; 343.15 K, x1 = 0.75) of 35.7 ± 1.2 mN/m. It also gave a surface tension liquid-gas ([1]; 343.15 K, x1 = 0.8) of 35.6 ± 1.2 mN/m, an electrical conductivity ([1]; 343.15 K, x1 = 0.5) of 0.11 ± 0.0044 S/m and an electrical conductivity ([1]; 343.15 K, x1 = 0.667) of 0.0842 ± 0.0034 S/m. The electrical conductivity ([1]; 343.15 K, x1 = 0.75) was 0.0282 ± 0.0011 S/m, the electrical conductivity ([1]; 343.15 K, x1 = 0.8) was 0.0262 ± 0.001 S/m and the viscosity ([1]; 343.15 K, x1 = 0.5) was 68.1 ± 6.9 mPa·s. It also gave a viscosity ([1]; 343.15 K, x1 = 0.667) of 154 ± 16 mPa·s, a viscosity ([1]; 343.15 K, x1 = 0.75) of 244.7 ± 25 mPa·s and a viscosity ([1]; 343.15 K, x1 = 0.8) of 204.5 ± 21 mPa·s. It also gave a mass density ([1]; 343.15 K, x1 = 0.5) of 997 ± 1 kg/m3, a mass density ([1]; 343.15 K, x1 = 0.667) of 976 ± 1 kg/m3 and a mass density ([1]; 343.15 K, x1 = 0.75) of 966 ± 1 kg/m3. It also gave a mass density ([1]; 343.15 K, x1 = 0.8) of 961 ± 1 kg/m3, a surface tension liquid-gas ([1]; 353.15 K, x1 = 0.5) of 37 ± 1 mN/m and a surface tension liquid-gas ([1]; 353.15 K, x1 = 0.667) of 35.6 ± 1.2 mN/m. It also gave a surface tension liquid-gas ([1]; 353.15 K, x1 = 0.75) of 34.9 ± 1.1 mN/m, a surface tension liquid-gas ([1]; 353.15 K, x1 = 0.8) of 34.6 ± 1.1 mN/m and an electrical conductivity ([1]; 353.15 K, x1 = 0.5) of 0.147 ± 0.0059 S/m. The electrical conductivity ([1]; 353.15 K, x1 = 0.667) was 0.092 ± 0.0037 S/m, the electrical conductivity ([1]; 353.15 K, x1 = 0.75) was 0.0319 ± 0.0013 S/m and the electrical conductivity ([1]; 353.15 K, x1 = 0.8) was 0.0273 ± 0.0011 S/m. The viscosity ([1]; 353.15 K, x1 = 0.5) was 44.7 ± 4.5 mPa·s, the viscosity ([1]; 353.15 K, x1 = 0.667) was 91.3 ± 9.2 mPa·s and the viscosity ([1]; 353.15 K, x1 = 0.75) was 155.6 ± 16 mPa·s. For the same compound, the viscosity ([1]; 353.15 K, x1 = 0.8) was 99.9 ± 10 mPa·s, the mass density ([1]; 353.15 K, x1 = 0.5) was 991 ± 1 kg/m3 and the mass density ([1]; 353.15 K, x1 = 0.667) was 970 ± 10 kg/m3. It also gave a mass density ([1]; 353.15 K, x1 = 0.75) of 960 ± 10 kg/m3, a mass density ([1]; 353.15 K, x1 = 0.8) of 955 ± 1 kg/m3 and a refractive index ([2]; 293.15 K, x1 = 0.5) of 1.48 ± 0.01. It also gave a refractive index ([2]; 293.15 K, x1 = 0.667) of 1.4851 ± 0.0021, a refractive index ([2]; 293.15 K, x1 = 0.75) of 1.4858 ± 0.0021 and a refractive index ([2]; 293.15 K, x1 = 0.8) of 1.4871 ± 0.0021. It also gave a refractive index ([2]; 303.15 K, x1 = 0.5) of 1.4772 ± 0.0021, a refractive index ([2]; 303.15 K, x1 = 0.667) of 1.4821 ± 0.0021 and a refractive index ([2]; 303.15 K, x1 = 0.75) of 1.4836 ± 0.0021. It also gave a refractive index ([2]; 303.15 K, x1 = 0.8) of 1.4841 ± 0.0021, a refractive index ([2]; 313.15 K, x1 = 0.5) of 1.4742 ± 0.0021 and a refractive index ([2]; 313.15 K, x1 = 0.667) of 1.479 ± 0.002. The refractive index ([2]; 313.15 K, x1 = 0.75) was 1.4806 ± 0.0021, the refractive index ([2]; 313.15 K, x1 = 0.8) was 1.4811 ± 0.0021 and the refractive index ([2]; 323.15 K, x1 = 0.5) was 1.4711 ± 0.0021. The refractive index ([2]; 323.15 K, x1 = 0.667) was 1.476 ± 0.002, the refractive index ([2]; 323.15 K, x1 = 0.75) was 1.4777 ± 0.0021 and the refractive index ([2]; 323.15 K, x1 = 0.8) was 1.4781 ± 0.0021. The refractive index ([2]; 333.15 K, x1 = 0.5) was 1.4678 ± 0.0021, the refractive index ([2]; 333.15 K, x1 = 0.667) was 1.4731 ± 0.0021 and the refractive index ([2]; 333.15 K, x1 = 0.75) was 1.4747 ± 0.0021. The refractive index ([2]; 333.15 K, x1 = 0.8) was 1.4752 ± 0.0021, the refractive index ([2]; 343.15 K, x1 = 0.5) was 1.4646 ± 0.0021 and the refractive index ([2]; 343.15 K, x1 = 0.667) was 1.4701 ± 0.0021. It also gave a refractive index ([2]; 343.15 K, x1 = 0.75) of 1.4717 ± 0.0021, a refractive index ([2]; 343.15 K, x1 = 0.8) of 1.4722 ± 0.0021 and a refractive index ([2]; 353.15 K, x1 = 0.5) of 1.4614 ± 0.0021. For the same compound, the refractive index ([2]; 353.15 K, x1 = 0.667) was 1.4673 ± 0.0021, the refractive index ([2]; 353.15 K, x1 = 0.75) was 1.4686 ± 0.0021 and the refractive index ([2]; 353.15 K, x1 = 0.8) was 1.4692 ± 0.0021.
